Experiment [1] has as its system PD-1 positive (transduced) KG-1 cells. Nature of the experiment: IFN gamma secretion assay in PD-1 transduced KG-1 cells (Example 11). It counts as cell-based, human. The conditions noted are these: ratio of EC50 in PD-1 positive and parental KG-1 cells. As to the method:
The KG-1 cell line was used to generate a PD-1 expressing cell line and furthermore, to measure IFNγ release upon incubation with TL-18 variants and corresponding TL-18 immunocytokines.
PD-1 expressing cell line generation: Briefly, KG-1 cells were transduced using lentiviral particles carrying the human PD-1 gene (PDCD1 NM_005018; Origene, CAT #: RC210364L3V) at a MOI (Multiplicity of Infection) of 30. Spinfection was performed at 1260 g during 90 min at 37° C. in the presence of 5 μg/ml of Polybrene and 10 mM of HEPES in complete culture media (RPMI, 10% FBS, 1% L-Glutamine). Five days after transduction, puromycin at a final concentration of 1 μg/ml was added to select for PD-1 positive cells. For culture maintenance, puromycin concentration was decreased to 0.5 μg/ml. Stable and homogenous expression of PD-1 was verified by surface staining (BD Pharmingen, #557860).
IFNγ release was assessed in PD-1 positive (transduced) KG-1 cells, as well as in the parental PD-1 negative cells. 0.5×10^5 cells were seeded into a 96-well U-bottom plate in culture media (RPMI, 10% FBS, […]) and stimulated with IL-18 variants/ICs for 20-24 h. The test items were diluted to 100 nM in culture medium, followed by 7 10-fold serial dilutions. The lowest concentration assessed was […]. After incubation, IFNγ release was measured using the LEGENDplex custom human mix and match KIT (Biolegend LEGENDplex™ Human IFN-γ Capture Bead B5, 13×#740942, LEGENDplex™ P 1 Essential Immune Response Panel Detection Abs, #740931, LEGENDplex™ Buffer Set A #740368). To this end, cell culture supernatant was collected and diluted 1:1 with Assay Buffer. Fluorescence measurements were done with a Quanteon Flow Cytometer from Acea Biosciences. For analysis, MFI values (median fluorescence intensity) were exported and plotted against concentrations used. The EC50 values (half maximal effective concentration) were calculated based on a variable slope and four parameter analysis using GraphPad PRISM software version 9.

Experiment [2] addresses T1, human IL-18 binding protein isoform a (IL-18BPa) (Homo sapiens, UniProt O95998).
T1 sequence (O95998 31-194): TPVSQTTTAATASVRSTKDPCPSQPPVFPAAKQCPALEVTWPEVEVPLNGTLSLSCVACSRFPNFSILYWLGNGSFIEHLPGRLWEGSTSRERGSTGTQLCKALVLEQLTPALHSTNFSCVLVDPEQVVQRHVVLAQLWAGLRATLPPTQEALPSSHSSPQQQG
Nature of the experiment: Cellular IL-18 Binding protein resistance assay in NK-92 cells (Example 13). It is filed as cell-based. The conditions noted are these: NK92 cells, IL-18 analyte 1 nM final, IL-18BPa titrated, 1 ng/ml IL-12; read-out: IC50 IL-18BP-mediated inhibition of IFNγ secretion. The procedure: The NK cell line NK-92 derived from a patient with lymphoma (ATCC, Cat #CRL-2407) was cultured in aMEM medium supplemented with 20% FCS-Glutamax, 25 μM B-mercaptoEthanol, and 100 IU/ml of recombinant Human Interleukin-2 (TL-2). On the day of experiment, cells were harvested and washed with aMEM medium without IL-2. After counting, cells were seeded at 100 000 cells/well in a 384 well titer plate and incubated at 37° C./5% CO2. Sixteen 2-fold serial dilutions of Fc fused human IL-18 binding protein isoform a (IL-18BPa; R&D systems, Cat #119-BP) were prepared in aMEM medium-1 ng/ml IL-12 containing 2 nM of each IL-18 variants and were added to the NK-92 cells. Final IL-18 analytes concentration was 1 nM and final IL-18BPa concentrations ranged from to 566 nM down to 17 pM.
After 16-20 h incubation at 37° C./5% CO2, 5 μl of supernatant were carefully transferred to a 384 microwells OPTIplate (Perkin Elmer; Cat #6007270) and Interferon-gamma (IFNγ) levels measured using the Human IFNγ AlphaLISA Assay Kit (Perkin Elmer, Cat #AL217C). Briefly, 10 μl of 2.5× AlphaLISA Anti-IFNγ acceptor beads and biotinylated Antibody Anti-IFNγ mix were added to the 5 μl of NK-92 supernatants and incubated for 1 h at room temperature under shaking. Under subdued light, 2.5 μl of 2× streptavidin (SA) donor beads were pipetted in each well and incubated for 30 min at room temperature under shaking. AlphaLisa signal was then measured on an Enspire plate reader (Perkin Elmer) using 680 and 615 nm as excitation and emission wavelengths respectively. Half maximal inhibitory concentration (IC50) was calculated based on a variable slope, four parameter analysis using GraphPad PRISM software.

The values that follow come from patent US12383631B2, “Immune antigen specific IL-18 immunocytokines and uses thereof” (Bright Peak Therapeutics AG, priority 2022, dated 2025).

As for “SEQ ID NO: 1: native IL-18 wild-type sequence [reference compound]”, in experiment [1], the “PD-1^pos/PD-1^neg EC50 ratio” value was found to be 1.298. The 50% inhibitory concentration (IC50) in experiment [2] is 781 pM.

For the substance “SEQ ID NO: 31: IL-18 polypeptide: C38A, C76A, C127A”, the “PD-1^pos/PD-1^neg EC50 ratio” value in experiment [1] is 1.2. Further, the IC50 in experiment [2] is 282 pM.
